Reference: ChEMBL document CHEMBL1158727, “Cyclobutane dimers from the Colombian medicinal plant Achyrocline bogotensis” (2005)

Columns and labels:
Assay type in all cases: functional
PBMC [1] = assay: Inhibition of LPS-induced TNFalpha production in human PBMC at 0.3 mg/mL after 48 hrs by ELISA
PBMC [2] = assay: Inhibition of LPS-induced IL10 production in human PBMC at 0.3 mg/mL after 48 hrs by ELISA
PBMC [3] = assay: Inhibition of LPS-induced IL12 production in human PBMC at 0.3 mg/mL after 48 hrs by ELISA

SMILES: C[C@]12C=CC(=O)C=C1CC[C@@H]1[C@@H]2[C@@H](O)C[C@@]2(C)[C@H]1CC[C@]2(O)C(=O)CO [PREDNISOLONE]
- inhibition at 300 µg/mL (PBMC [1]): 0.44%
- inhibition at 300 µg/mL (PBMC [2]): 0.14%
- inhibition at 300 µg/mL (PBMC [3]): 0.24%
